The record followed here is BindingDB's records for doi:10.1021/jm400938g (State Key Laboratory of Bioreactor Engineering, 2013).

In experiment [1] the target is Dihydroorotate dehydrogenase (quinone), mitochondrial (Homo sapiens, UniProt Q02127). Description: Inhibition of N-terminal His10-tagged human DHODH (Met30 to Arg396) expressed in Escherichia coli BL21 (DE3) using dihydroorotate as substrate measured every 30 secs for 6 mins by DCIP dye-based assay.
Experiment [2] concerns the target T1, Dihydroorotate dehydrogenase (quinone), mitochondrial (Plasmodium falciparum, UniProt Q54A96).
T1 sequence (Q54A96 whole entry): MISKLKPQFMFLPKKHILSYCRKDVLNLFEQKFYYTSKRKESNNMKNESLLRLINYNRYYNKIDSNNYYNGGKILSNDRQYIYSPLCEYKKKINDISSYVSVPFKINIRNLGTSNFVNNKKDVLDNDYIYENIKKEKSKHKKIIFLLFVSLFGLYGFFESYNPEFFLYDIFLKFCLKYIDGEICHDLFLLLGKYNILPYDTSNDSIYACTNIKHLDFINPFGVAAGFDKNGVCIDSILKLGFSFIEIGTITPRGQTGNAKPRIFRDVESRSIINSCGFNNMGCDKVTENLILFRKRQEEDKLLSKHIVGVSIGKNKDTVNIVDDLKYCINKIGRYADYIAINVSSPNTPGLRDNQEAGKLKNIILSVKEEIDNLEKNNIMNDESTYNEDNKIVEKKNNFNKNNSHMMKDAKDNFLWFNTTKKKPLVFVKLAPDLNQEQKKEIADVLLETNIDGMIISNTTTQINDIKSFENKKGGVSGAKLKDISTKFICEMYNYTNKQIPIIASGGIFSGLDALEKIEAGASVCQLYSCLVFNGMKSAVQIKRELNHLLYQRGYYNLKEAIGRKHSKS
In words: Inhibition of Plasmodium falciparum DHODH (Phe158 to Ser569) expressed in Escherichia coli BL21 using dihydroorotate as substrate measured every 30 secs for 6 mins by DCIP dye-based assay.

The structures appear in SMILES notation.

Sequence of Dihydroorotate dehydrogenase (quinone), mitochondrial (Homo sapiens, UniProt Q02127) (Q02127 whole entry): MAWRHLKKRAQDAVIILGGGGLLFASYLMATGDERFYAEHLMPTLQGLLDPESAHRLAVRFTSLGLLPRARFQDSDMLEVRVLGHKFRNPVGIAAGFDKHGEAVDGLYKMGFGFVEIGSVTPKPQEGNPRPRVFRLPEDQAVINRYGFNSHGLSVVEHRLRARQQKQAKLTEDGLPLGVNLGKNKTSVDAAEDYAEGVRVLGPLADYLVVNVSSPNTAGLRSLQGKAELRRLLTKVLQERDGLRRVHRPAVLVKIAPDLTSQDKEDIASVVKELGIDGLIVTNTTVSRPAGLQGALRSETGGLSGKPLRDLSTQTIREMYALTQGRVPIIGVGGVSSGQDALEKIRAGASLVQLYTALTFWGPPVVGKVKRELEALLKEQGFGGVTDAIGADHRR

As for `O=C(NCC1CC1)c1c(O)csc1Nc1ccc2ccccc2c1`, the IC50 in experiment [1] and in experiment [2] was > 50 µM in each case.
`CCCCNC(=O)c1c(O)csc1Nc1ccc2ccccc2c1`: the IC50 in experiment [1] and in experiment [2] was > 50 µM in each case.
Turning to `CCCNC(=O)c1c(O)csc1Nc1ccc2ccccc2c1`, the IC50 in experiment [1] and in experiment [2] was > 50 µM each time.
With `Cc1ccc(Nc2scc(O)c2C(N)=O)cc1C`, the half-maximal inhibitory concentration (IC50) in experiment [1] and in experiment [2] was > 50 µM in each case.
As to `Cc1ccc(Nc2scc(O)c2C(=O)O)cc1C`, the concentration for half-maximal inhibition (IC50) in experiment [1] and in experiment [2] was > 50 µM in each case.
Consider `CCOC(=O)c1c(O)csc1Nc1ccc(Br)cc1C`, for which the concentration for half-maximal inhibition (IC50) in experiment [1] and in experiment [2] was > 50 µM each time.
Regarding `CCOC(=O)c1c(O)csc1Nc1cccc(C(F)(F)F)c1`, the 50% inhibitory concentration (IC50) in experiment [1] and in experiment [2] was > 50 µM each time.
As for `CCOC(=O)c1c(O)csc1Nc1ccccc1`, the IC50 in experiment [1] and in experiment [2] was > 50 µM in each case.
